Measurements as given in doi:10.1101/2023.07.12.548622v2 (biorxiv, 2023).
Blank lines part the entries; values can stand above or below the compound they belong to.

How the values were obtained:
[1] = target: T1, hACKR3 (atypical chemokine receptor 3; CXCR7) (Homo sapiens, UniProt P25106); assay: [3H]VUF15485 displacement, HEK293T membranes; assay type: binding; settings: for pIC50: 5 nM [3H]VUF15485, 25 °C, 2 h
[2] = target: T1, hACKR3 (atypical chemokine receptor 3; CXCR7); assay: BRET beta-arrestin2 recruitment, HEK293T; assay type: cell-based
[3] = target: T1, hACKR3 (atypical chemokine receptor 3; CXCR7); assay: […]CXCL12 displacement, intact HEK293T cells; assay type: cell-based
[4] = target: hACKR3 (atypical chemokine receptor 3; CXCR7) (Homo sapiens, UniProt P25106, D275N); assay: homologous [3H]VUF15485 competition binding, HEK293T membranes
hACKR3 (atypical chemokine receptor 3; CXCR7) (Homo sapiens, UniProt P25106, D275N), sequence (P25106 whole entry D275N): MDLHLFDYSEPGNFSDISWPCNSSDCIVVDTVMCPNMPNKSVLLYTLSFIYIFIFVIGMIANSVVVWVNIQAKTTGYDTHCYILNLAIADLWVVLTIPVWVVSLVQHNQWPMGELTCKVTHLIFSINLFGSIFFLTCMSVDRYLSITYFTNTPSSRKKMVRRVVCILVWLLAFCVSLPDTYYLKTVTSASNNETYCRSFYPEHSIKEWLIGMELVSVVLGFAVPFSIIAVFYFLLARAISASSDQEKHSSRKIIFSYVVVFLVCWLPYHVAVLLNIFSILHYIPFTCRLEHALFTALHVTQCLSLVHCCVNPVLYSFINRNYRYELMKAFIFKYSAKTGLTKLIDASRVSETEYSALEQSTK

[5] = target: T1, hACKR3 (atypical chemokine receptor 3; CXCR7); assay: [3H]VUF15485 saturation binding, HEK293T membranes
[6] = target: hACKR3 (atypical chemokine receptor 3; CXCR7) (Homo sapiens, UniProt P25106, Q301E); assay: homologous [3H]VUF15485 competition binding, HEK293T membranes
hACKR3 (atypical chemokine receptor 3; CXCR7) (Homo sapiens, UniProt P25106, Q301E), sequence (P25106 whole entry Q301E): as the sequence (P25106 whole entry D275N) above, with N275D, Q301E counted along it

[7] = target: hACKR3 (atypical chemokine receptor 3; CXCR7) (Homo sapiens, UniProt P25106, V217A); assay: as above
hACKR3 (atypical chemokine receptor 3; CXCR7) (Homo sapiens, UniProt P25106, V217A), sequence (P25106 whole entry V217A): as the sequence (P25106 whole entry D275N) above, with V217A, N275D counted along it

[8] = target: hACKR3 (atypical chemokine receptor 3; CXCR7) (Homo sapiens, UniProt P25106, H121A); assay: as above
hACKR3 (atypical chemokine receptor 3; CXCR7) (Homo sapiens, UniProt P25106, H121A), sequence (P25106 whole entry H121A): as the sequence (P25106 whole entry D275N) above, with H121A, N275D counted along it

[9] = target: hACKR3 (atypical chemokine receptor 3; CXCR7) (Homo sapiens, UniProt P25106, Y51A); assay: as above
hACKR3 (atypical chemokine receptor 3; CXCR7) (Homo sapiens, UniProt P25106, Y51A), sequence (P25106 whole entry Y51A): as the sequence (P25106 whole entry D275N) above, with Y51A, N275D counted along it

[10] = target: hACKR3 (atypical chemokine receptor 3; CXCR7) (Homo sapiens, UniProt P25106, E213Q); assay: as above
hACKR3 (atypical chemokine receptor 3; CXCR7) (Homo sapiens, UniProt P25106, E213Q), sequence (P25106 whole entry E213Q): as the sequence (P25106 whole entry D275N) above, with E213Q, N275D counted along it

[11] = target: hACKR3 (atypical chemokine receptor 3; CXCR7) (Homo sapiens, UniProt P25106, S103D); assay: as above
hACKR3 (atypical chemokine receptor 3; CXCR7) (Homo sapiens, UniProt P25106, S103D), sequence (P25106 whole entry S103D): as the sequence (P25106 whole entry D275N) above, with S103D, N275D counted along it

[12] = target: hACKR3 (atypical chemokine receptor 3; CXCR7) (Homo sapiens, UniProt P25106, H298A); assay: as above
hACKR3 (atypical chemokine receptor 3; CXCR7) (Homo sapiens, UniProt P25106, H298A), sequence (P25106 whole entry H298A): as the sequence (P25106 whole entry D275N) above, with N275D, H298A counted along it

mouse ACKR3 (mACKR3) = mouse ACKR3 (mACKR3) (Mus musculus, UniProt P56485); assay: NanoBiT beta-arrestin2 recruitment, HEK293T; assay type: cell-based
mouse ACKR3 (mACKR3), sequence (P56485 whole entry): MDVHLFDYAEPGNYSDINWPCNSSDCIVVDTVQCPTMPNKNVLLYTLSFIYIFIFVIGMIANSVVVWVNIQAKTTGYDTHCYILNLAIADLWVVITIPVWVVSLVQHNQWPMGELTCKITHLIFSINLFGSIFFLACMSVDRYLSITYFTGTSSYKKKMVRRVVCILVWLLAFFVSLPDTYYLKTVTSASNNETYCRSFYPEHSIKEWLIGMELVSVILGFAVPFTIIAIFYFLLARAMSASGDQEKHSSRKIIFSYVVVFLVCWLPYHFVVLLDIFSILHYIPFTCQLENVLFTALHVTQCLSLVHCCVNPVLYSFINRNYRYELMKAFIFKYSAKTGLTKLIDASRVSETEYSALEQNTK

[13] = target: T1, hACKR3 (atypical chemokine receptor 3; CXCR7); assay: homologous [3H]VUF15485 competition binding, HEK293T membranes

T1 sequence (P25106 whole entry): as the sequence (P25106 whole entry D275N) above, with N275D counted along it

Compound: Oc1ccc(CN2CCC(CNCc3ccccc3)CC2)cc1 [9 in Adlere et al., 2019, VUF16774]
IC50 [1]: 10 µM

Compound: CC1(C)[C@H]2CC=C(C[N+](C)(C)Cc3ccc(-c4ccccc4Br)cc3)[C@@H]1C2.[I-] [38 in Wijtmans et al., 2012b, VUF11222]
pIC50 [1]: 5.8 ± 0.2

Compound: CC1(C)[C@H]2CC=C(C[N+](C)(C)Cc3ccc(-c4ccccc4I)cc3)[C@@H]1C2.[I-] [39 in Wijtmans et al., 2012b, VUF11418]
pIC50 [1]: 5.9 ± 0.3

Compound: VUF10990 [10q in Wijtmans et al., 2011]
pIC50 [1]: 5.9 ± 0.1

Compound: VUF11403 [30 in Wijtmans et al., 2012a]
pIC50 [1]: 7.9 ± 0.1

Compound: VUF16545 [1 in Uto-Konimi et al., 2013]
pIC50 [1]: 7.8 ± 0.1

Compound: VUF16771 [28 in Adlere et al., 2019]
pIC50 [1]: 5.8 ± 0.1

Compound: VUF16779 [22 in Adlere et al., 2019]
pIC50 [1]: 6.0 ± 0.1

Other lines, results leading:

IC50 [1]: ≥ 100 µM
Compound: c1cc(CN2CCCNCCNCCCNCC2)ccc1CN1CCCNCCNCCCNCC1 [AMD3100]

IC50 [1]: ≥ 100 µM
Compound: CC1(C)CN2C(CS/C(=N\C3CCCCC3)NC3CCCCC3)=CSC2=N1 [IT1t]

EC50 [2]: 31.6 nM
IC50 [3]: 10 nM
Compound: COc1cc(C(=O)N(CCC2CCCN2C)C/C(C)=C/c2ccccc2F)cc(OC)c1OC (stereo not shown) [VUF11207]

pIC50 [1]: 4.7 ± 0.2
Compound: CCNC(=O)c1cnc(N2CCN(C3CCN(Cc4ccc(Cl)cc4)CC3)C(CC)C2)c(Cl)c1 (stereo not shown) [VUF11211]

EC50 [2]: 39.8 nM
IC50 [3]: 20 nM
Compound: COc1cc(C(=O)N(CC[C@@H]2CCCN2C)C/C(C)=C/c2ccccc2F)cc(OC)c1OC [VUF13744]

Ki [4]: 18.6 nM
Kd [5]: 16 ± 2.4 nM
Ki [6]: 17 nM
Ki [7]: 38 nM
Ki [8]: 55 nM
Ki [9]: 49 nM
Ki [10]: 10.5 nM
Ki [11]: 95.5 nM
Ki [12]: 44.7 nM
EC50 (mouse ACKR3 (mACKR3)): 20 nM
EC50 [2]: 25.1 nM
Ki [13]: 24.5 nM
IC50 [3]: 5.01 nM
Compound: COc1cc(C(=O)N(CC[C@H]2CCCN2C)C/C(C)=C/c2ccccc2F)cc(OC)c1OC [VUF15485, (R,E)-N-(3-(2-fluorophenyl)-2-methylallyl)-3,4,5-trimethoxy-N-(2-(1-methylpyrrolidin-2-yl)ethyl)benzamide]
